Drawing on patent US20250136606A1, “MODULATORS OF TRPML, THEIR COMPOSITIONS AND METHODS OF USE” (Caraway Therapeutics, Inc., priority 2021, published 2025), this text covers EC50 for 17 molecules.

What all share (format): cell-based
Settings in all cases: fluorescent calcium assay

In one experiment the target is TRPML1 (Homo sapiens, UniProt Q9GZU1). Kind of experiment: Fluorescent TRPML1 assay (Fluo4-AM calcium fluorescence in doxycycline-induced HEK-293 Trex cells). Summed up: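 hTRPML1 (mutated for cell-surface expression) in HEK-293 Trex, dox 0.5 ug/mL o/n; Fluo4-AM 1 uM ~60 min, then ~60 min de-esterification, dark; modified Ringer's + 10 mM Ca. Cmpds 20 uM–6 nM final, half-log, n=3. Ex480/Em540; % activity vs ctrls; EC50 by nonlinear regression.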
Sequence of TRPML1 (Q9GZU1 whole entry L15A/L16A/L577A/L578A, form open): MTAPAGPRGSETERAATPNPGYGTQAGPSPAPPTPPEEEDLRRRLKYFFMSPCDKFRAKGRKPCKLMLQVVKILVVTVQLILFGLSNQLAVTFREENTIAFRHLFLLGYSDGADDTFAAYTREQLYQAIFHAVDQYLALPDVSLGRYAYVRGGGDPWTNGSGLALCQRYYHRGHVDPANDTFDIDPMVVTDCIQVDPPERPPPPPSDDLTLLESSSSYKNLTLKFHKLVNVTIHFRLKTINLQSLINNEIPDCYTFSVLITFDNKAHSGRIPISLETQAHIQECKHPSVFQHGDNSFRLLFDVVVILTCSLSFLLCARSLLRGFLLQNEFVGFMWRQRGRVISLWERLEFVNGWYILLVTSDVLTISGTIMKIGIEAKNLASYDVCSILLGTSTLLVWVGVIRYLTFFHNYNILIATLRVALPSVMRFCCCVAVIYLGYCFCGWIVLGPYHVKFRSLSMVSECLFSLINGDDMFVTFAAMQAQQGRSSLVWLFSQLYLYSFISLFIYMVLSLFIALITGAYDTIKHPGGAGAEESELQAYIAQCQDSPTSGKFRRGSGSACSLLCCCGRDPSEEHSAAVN

The next experiment deals with T1, TRPML2 (Homo sapiens, UniProt Q8IZK6).
T1 construct: expressed in transfected cells
T1 sequence (Q8IZK6 1-566): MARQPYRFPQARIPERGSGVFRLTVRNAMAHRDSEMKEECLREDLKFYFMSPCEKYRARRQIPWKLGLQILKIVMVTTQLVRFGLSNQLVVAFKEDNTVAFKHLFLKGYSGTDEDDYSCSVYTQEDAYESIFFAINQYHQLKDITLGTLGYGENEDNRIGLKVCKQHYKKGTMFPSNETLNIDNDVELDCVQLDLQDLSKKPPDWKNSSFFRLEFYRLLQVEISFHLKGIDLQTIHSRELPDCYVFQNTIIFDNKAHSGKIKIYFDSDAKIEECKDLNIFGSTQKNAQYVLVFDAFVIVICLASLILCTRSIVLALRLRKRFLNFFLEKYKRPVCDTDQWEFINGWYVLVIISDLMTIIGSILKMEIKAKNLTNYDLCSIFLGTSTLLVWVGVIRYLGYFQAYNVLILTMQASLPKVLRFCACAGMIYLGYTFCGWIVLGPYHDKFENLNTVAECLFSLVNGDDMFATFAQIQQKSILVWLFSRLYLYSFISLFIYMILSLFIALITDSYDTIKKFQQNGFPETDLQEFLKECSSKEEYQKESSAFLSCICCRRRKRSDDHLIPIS
Description: Fluorescent TRPML2 assay (performed as for TRPML1, substituting the TRPML2 subtype). The method in brief:
(§1)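 Calcium-influx readout: Fluo4 fluorescence at 480/540 nm, normalised to positive and negative controls per plate, EC50 fitted by non-linear regression. Cells were HEK-293 Trex stable lines, channel expression induced overnight with 0.5 ug/mL doxycycline; tested at 20 micromolar down to 6 nanomolar final, half-log steps, triplicate.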

The target in another experiment is T2, TRPML3 (Homo sapiens, UniProt Q8TDD5).
T2 construct: expressed in transfected cells
T2 sequence (Q8TDD5 1-553): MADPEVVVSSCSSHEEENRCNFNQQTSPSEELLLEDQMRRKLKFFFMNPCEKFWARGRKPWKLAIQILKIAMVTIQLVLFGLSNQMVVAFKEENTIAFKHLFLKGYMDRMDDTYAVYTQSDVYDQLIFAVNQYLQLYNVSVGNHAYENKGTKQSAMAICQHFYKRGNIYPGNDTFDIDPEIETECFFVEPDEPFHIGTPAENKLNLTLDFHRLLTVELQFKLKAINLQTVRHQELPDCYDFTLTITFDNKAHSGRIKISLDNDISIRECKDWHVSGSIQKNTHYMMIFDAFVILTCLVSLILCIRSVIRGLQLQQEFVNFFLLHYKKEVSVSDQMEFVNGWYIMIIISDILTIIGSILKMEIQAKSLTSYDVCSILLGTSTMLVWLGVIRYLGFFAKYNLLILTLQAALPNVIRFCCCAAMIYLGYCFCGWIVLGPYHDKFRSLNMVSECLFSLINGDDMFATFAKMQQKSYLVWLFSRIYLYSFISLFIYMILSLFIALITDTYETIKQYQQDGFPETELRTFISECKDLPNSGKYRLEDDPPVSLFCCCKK
Kind of experiment: Fluorescent TRPML3 assay (performed as for TRPML1, substituting the TRPML3 subtype). The method in brief: as §1

The structures appear in SMILES notation.

Take `C[C@@H]1CN(c2ncnc3c2c(C2CC2)cn3-c2cc(F)cc(F)c2)[C@@H](C)CN1C(=O)OC(C)(C)C` [Compound 232, tert-butyl (2R,5S)-4-(5-cyclopropyl-7-(3,5-difluorophenyl)-7H-pyrrolo[2,3-d]pyrimidin-4-yl)-2,5-dimethylpiperazine-1-carboxylate]: the EC50 – broadly, the concentration at which the effect is half-maximal – on TRPML1 is less than 100 nM; on TRPML2, 500 to 2000 nM; at TRPML3, less than 100 nM.
In the case of `C[C@@H]1CN(c2ncnc3c2c(-c2cnccn2)cn3-c2cc(F)cc(F)c2)CCN1C(=O)OC(C)(C)C` [Compound 233, tert-butyl (R)-4-(7-(3,5-difluorophenyl)-5-(pyrazin-2-yl)-7H-pyrrolo[2,3-d]pyrimidin-4-yl)-2-methylpiperazine-1-carboxylate], the figures for the concentration for a half-maximal effect (EC50) at TRPML1, on TRPML2 and on TRPML3 were 500 to 2000 nM, 500 to 2000 nM and 100 to 500 nM, respectively.
Consider `CC(C)(C)OC(=O)N1CCN(c2ncnc3c2c(C2CC2)cn3-c2cc(F)c(F)c(F)c2)CC1` [Compound 234, tert-butyl 4-(5-cyclopropyl-7-(3,4,5-trifluorophenyl)-7H-pyrrolo[2,3-d]pyrimidin-4-yl)piperazine-1-carboxylate], for which the concentration for a half-maximal effect (EC50) at TRPML1 lay in the range of 100 to 500 nM; on TRPML2, 500 to 2000 nM; on TRPML3, 100 to 500 nM.
For the molecule `C[C@H]1CN(C(=O)OC(C)(C)C)CCN1c1ncnc2c1c(-c1ccccn1)cn2-c1cc(F)cc(F)c1` [Compound 235, tert-butyl-(S)-4-(7-(3,5-difluorophenyl)-5-(pyridin-2-yl)-7H-pyrrolo[2,3-d]pyrimidin-4-yl)-3-methylpiperazine-1-carboxylate], the EC50 at TRPML1, at TRPML2 and on TRPML3 was 100 to 500 nM throughout.
On to `C[C@@H]1CN(c2ncnc3c2c(C2CC2)cn3-c2cc(F)cc(Cl)c2)[C@@H](C)CN1C(=O)OC(C)(C)C` [Compound 236, tert-butyl (2R,5S)-4-(7-(3-chloro-5-fluorophenyl)-5-cyclopropyl-7H-pyrrolo[2,3-d]pyrimidin-4-yl)-2,5-dimethylpiperazine-1-carboxylate], for which the EC50 was less than 100 nM on TRPML1, 100 to 500 nM at TRPML2 and less than 100 nM at TRPML3.
On to `C[C@H]1CN(C(=O)OC(C)(C)C)CCN1c1ncnc2c1c(-c1cnccn1)cn2-c1cc(F)cc(F)c1` [Compound 237, tert-butyl-(S)-4-(7-(3,5-difluorophenyl)-5-(pyrazin-2-yl)-7H-pyrrolo[2,3-d]pyrimidin-4-yl)-3-methylpiperazine-1-carboxylate], for which the results for the EC50 on TRPML1, at TRPML2 and at TRPML3 were 500 to 2000 nM, 500 to 2000 nM and 100 to 500 nM, respectively.
With `C[C@@H]1CN(c2ncnc3c2c(-c2ccncc2)cn3-c2cc(F)cc(Cl)c2)CCN1C(=O)OC(C)(C)C` [Compound 238, tert-butyl (R)-4-(7-(3-chloro-5-fluorophenyl)-5-(pyridin-4-yl)-7H-pyrrolo[2,3-d]pyrimidin-4-yl)-2-methylpiperazine-1-carboxylate], the figures for the EC50 at TRPML1, at TRPML2 and on TRPML3 were less than 100 nM, 500 to 2000 nM and 100 to 500 nM, respectively.
The like results for `C[C@@H]1CN(c2ncnc3c2c(C2CC2)nn3-c2cc(F)cc(F)c2)CCN1C(=O)OC(C)(C)C` [Compound 239, tert-butyl (R)-4-(3-cyclopropyl-1-(3,5-difluorophenyl)-1H-pyrazolo[3,4-d]pyrimidin-4-yl)-2-methylpiperazine-1-carboxylate] were, in that order, less than 100 nM, 500 to 2000 nM and less than 100 nM.
Consider `C[C@H]1CN(c2ncnc3c2c(C2CC2)nn3-c2cc(F)cc(F)c2)CCN1C(=O)OC(C)(C)C` [Compound 240, tert-Butyl (S)-4-(3-cyclopropyl-1-(3,5-difluorophenyl)-1H-pyrazolo[3,4-d]pyrimidin-4-yl)-2-methylpiperazine-1-carboxylate], for which the EC50 at TRPML1 is 100 to 500 nM; on TRPML2, 500 to 2000 nM; at TRPML3, 100 to 500 nM.
For the molecule `C[C@H]1CN(C(=O)OC(C)(C)C)CCN1c1ncnc2c1c(-c1ccncc1)cn2-c1cc(F)cc(F)c1` [Compound 241, tert-butyl-(S)-4-(7-(3,5-difluorophenyl)-5-(pyridin-4-yl)-7H-pyrrolo[2,3-d]pyrimidin-4-yl)-3-methylpiperazine-1-carboxylate], the concentration for a half-maximal effect (EC50) at TRPML1 fell in the range of 100 to 500 nM; on TRPML2, 500 to 2000 nM; at TRPML3, 100 to 500 nM.
As for `Cc1nccnc1-c1cn(-c2cc(F)cc(F)c2)c2ncnc(N3CCN(C(=O)OC(C)(C)C)[C@H](C)C3)c12` [Compound 242, tert-butyl (R)-4-(7-(3,5-difluorophenyl)-5-(3-methylpyrazin-2-yl)-7H-pyrrolo[2,3-d]pyrimidin-4-yl)-2-methylpiperazine-1-carboxylate], the EC50 on TRPML1, at TRPML2 and on TRPML3 was 100 to 500 nM in each case.
With `Cc1nccnc1-c1cn(-c2cc(F)cc(F)c2)c2ncnc(N3CCN(C(=O)OC(C)(C)C(F)(F)F)[C@H](C)C3)c12` [Compound 243, 1,1,1-trifluoro-2-methylpropan-2-yl (R)-4-(7-(3,5-difluorophenyl)-5-(3-methylpyrazin-2-yl)-7H-pyrrolo[2,3-d]pyrimidin-4-yl)-2-methylpiperazine-1-carboxylate], the 50% effective concentration (EC50) on TRPML1 was 100 to 500 nM; at TRPML2 it was 500 to 2000 nM; on TRPML3, 100 to 500 nM.
Turning to `C[C@@H]1CN(c2ncnc3c2c(N2CCCC2)cn3-c2cc(F)cc(F)c2)CCN1C(=O)OC(C)(C)C` [Compound 245, tert-butyl (R)-4-(7-(3,5-difluorophenyl)-5-(pyrrolidin-1-yl)-7H-pyrrolo[2,3-d]pyrimidin-4-yl)-2-methylpiperazine-1-carboxylate], the EC50 on TRPML1 was in the range of 100 to 500 nM; on TRPML2, 500 to 2000 nM; at TRPML3 it was 100 to 500 nM.
In the case of `Cc1nccnc1-c1cn(-c2cc(F)cc(F)c2)c2ncnc(N3CCN(C(=O)OC(C)(C)C)C[C@@H]3C)c12` [Compound 246, tert-butyl (S)-4-(7-(3,5-difluorophenyl)-5-(3-methylpyrazin-2-yl)-7H-pyrrolo[2,3-d]pyrimidin-4-yl)-3-methylpiperazine-1-carboxylate], the EC50 on TRPML1 is 500 to 2000 nM; on TRPML2, 500 to 2000 nM; at TRPML3, 100 to 500 nM.
For the molecule `Cc1nccnc1-c1cn(-c2cc(F)cc(F)c2)c2ncnc(N3CCN(C(=O)OC(C)(C)C(F)(F)F)C[C@@H]3C)c12` [Compound 247, 1,1,1-trifluoro-2-methylpropan-2-yl (S)-4-(7-(3,5-difluorophenyl)-5-(3-methylpyrazin-2-yl)-7H-pyrrolo[2,3-d]pyrimidin-4-yl)-3-methylpiperazine-1-carboxylate], the EC50 at TRPML1 fell in the range of 500 to 2000 nM; on TRPML2, 500 to 2000 nM; on TRPML3, 100 to 500 nM.
In the case of `Cc1nccnc1-c1cn(-c2cc(F)cc(F)c2)c2ncnc(N3CCN(C(=O)OC(C)(C)CF)C[C@@H]3C)c12` [Compound 248, 1-fluoro-2-methylpropan-2-yl (S)-4-(7-(3,5-difluorophenyl)-5-(3-methylpyrazin-2-yl)-7H-pyrrolo[2,3-d]pyrimidin-4-yl)-3-methylpiperazine-1-carboxylate], the concentration for a half-maximal effect (EC50) is 500 to 2000 nM on TRPML1, more than 2000 nM at TRPML2 and 500 to 2000 nM on TRPML3.
With `Cc1nccnc1-c1cn(-c2cc(F)cc(F)c2)c2ncnc(N3CCN(C(=O)OC(C)C)C[C@@H]3C)c12` [Compound 249, Isopropyl (S)-4-(7-(3,5-difluorophenyl)-5-(3-methylpyrazin-2-yl)-7H-pyrrolo[2,3-d]pyrimidin-4-yl)-3-methylpiperazine-1-carboxylate], the concentration giving a half-maximal response (EC50) at TRPML1 was more than 2000 nM; on TRPML2, more than 2000 nM; at TRPML3, 500 to 2000 nM.
